Test results reported in patent US7420001B2 (Wyeth, priority 2003, dated 2008).

How the values were obtained:
MMP-2 = target: T1, MMP-2 (Homo sapiens, UniProt P08253); test: In-vitro fluorescence assay of MMP-2 activity; assay type: biochemical; conditions: recombinant human MMP-2; read-out: MMP-2 IC50
T1 construct: purchased Oncogene Research Products (Calbiochem) PF023
T1 sequence (P08253 110-660): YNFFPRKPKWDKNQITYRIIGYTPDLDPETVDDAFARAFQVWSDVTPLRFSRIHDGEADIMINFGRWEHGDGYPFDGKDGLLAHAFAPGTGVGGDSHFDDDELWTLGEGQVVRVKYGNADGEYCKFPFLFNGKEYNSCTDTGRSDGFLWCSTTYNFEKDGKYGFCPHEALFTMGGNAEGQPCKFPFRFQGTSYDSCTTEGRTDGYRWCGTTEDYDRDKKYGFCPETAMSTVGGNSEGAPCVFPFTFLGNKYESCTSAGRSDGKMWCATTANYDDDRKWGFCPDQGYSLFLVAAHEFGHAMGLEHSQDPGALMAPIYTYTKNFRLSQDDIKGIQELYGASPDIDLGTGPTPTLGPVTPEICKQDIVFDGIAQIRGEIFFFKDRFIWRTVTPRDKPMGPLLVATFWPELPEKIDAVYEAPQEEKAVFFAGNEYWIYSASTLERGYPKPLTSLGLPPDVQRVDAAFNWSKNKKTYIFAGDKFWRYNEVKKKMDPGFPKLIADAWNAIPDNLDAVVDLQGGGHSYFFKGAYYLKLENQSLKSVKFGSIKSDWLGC

MMP-13 = target: T2, MMP-13 (Homo sapiens, UniProt P45452); test: In-vitro fluorescence assay of MMP-13 activity; assay type: biochemical; conditions: recombinant human catalytic domain of MMP-13; read-out: MMP-13 IC50
T2 construct: made in house

| IC50 (MMP-2) [nM] | IC50 (MMP-13) [nM] | Compound |
| --- | --- | --- |
| 886 | 8 | CNc1cccc2oc(C(=O)Nc3ccc(-c4ccc(S(=O)(=O)N[C@H](C(=O)O)C(C)C)cc4)cc3)c(C)c12 [Example 60, L-3-Methyl-2-{4′-[(3-methyl-4-methylamino-benzofuran-2-carbonyl)-amino]-biphenyl-4-sulfonylamino}-butyric acid] |
| 5110 | 6.5 | Cc1c(C(=O)Nc2ccc(-c3ccc(S(=O)(=O)N[C@H](C(=O)O)C(C)C)cc3)cc2)oc2cccc(N(C)C)c12 [Example 62, L-2-{4′-[(4-Dimethylamino-3-methyl-benzofuran-2-carbonyl)-amino]-biphenyl-4-sulfonylamino}-3-methyl-butyric acid] |
| 5000 | 28 | Cc1c(C(=O)Nc2ccc(-c3ccc(S(=O)(=O)N[C@H](C(=O)O)C(C)C)cc3)cc2)oc2cccc(N3CCCC3)c12 [Example 63, L-3-Methyl-2-{4′-[(3-methyl-4-pyrrolidin-1-yl-benzofuran-2-carbonyl)-amino]-biphenyl-4-sulfonylamino}-butyric acid] |
| 6940 | 63 | Cc1c(C(=O)Nc2ccc(-c3ccc(S(=O)(=O)N(C)[C@H](C(=O)O)C(C)C)cc3)cc2)oc2cccc(NS(C)(=O)=O)c12 [Example 64, L-2-({4′-[(4-Methanesulfonylamino-3-methyl-benzofuran-2-carbonyl)-amino]-biphenyl-4-sulfonyl}-methyl-amino)-3-methyl-butyric acid] |
| 2470 | 10.9 | Cc1c(C(=O)Nc2ccc(-c3ccc(S(=O)(=O)N[C@H](C(=O)O)C(C)O)cc3)cc2)oc2cccc(NS(C)(=O)=O)c12 (stereo partly drawn) [Example 65, L-3-Hydroxy-2-{4′-[(4-methanesulfonylamino-3-methyl-benzofuran-2-carbonyl)-amino]-biphenyl-4-sulfonylamino}-butyric acid] |
| 5750 | 20 | Cc1c(C(=O)Nc2ccc(-c3ccc(S(=O)(=O)N[C@H](C(=O)O)C(C)C)cc3)cc2)oc2cccc(NC(=O)C(F)(F)F)c12 [Example 67, L-3-Methyl-2-(4′-{[3-methyl-4-(2,2,2-trifluoro-acetylamino)-benzofuran-2-carbonyl]-amino}-biphenyl-4-sulfonylamino)-butyric acid] |
| 1650 | 12 | CCS(=O)(=O)Nc1cccc2oc(C(=O)Nc3ccc(-c4ccc(S(=O)(=O)N[C@H](C(=O)O)C(C)C)cc4)cc3)c(C)c12 [Example 68, L-2-{4′-[(4-Ethanesulfonylamino-3-methyl-benzofuran-2-carbonyl)-amino]-biphenyl-4-sulfonylamino}-3-methyl-butyric acid] |
| 2340 | 16 | Cc1c(C(=O)Nc2ccc(-c3ccc(S(=O)(=O)N[C@H](C(=O)O)C(C)C)cc3)cc2)oc2cccc(NS(=O)(=O)C(C)C)c12 [Example 69, L-3-Methyl-2-(4′-{[3-methyl-4-(propane-2-sulfonylamino)-benzofuran-2-carbonyl]-amino}-biphenyl-4-sulfonylamino)-butyric acid] |
| 3470 | 14 | CCS(=O)(=O)N(C)c1cccc2oc(C(=O)Nc3ccc(-c4ccc(S(=O)(=O)N[C@H](C(=O)O)C(C)C)cc4)cc3)c(C)c12 [Example 70, L-2-(4′-{[4-(Ethanesulfonyl-methyl-amino)-3-methyl-benzofuran-2-carbonyl]-amino}-biphenyl-4-sulfonylamino)-3-methyl-butyric acid] |
| 6020 | 8.1 | Cc1c(C(=O)Nc2ccc(-c3ccc(S(=O)(=O)N[C@H](C(=O)O)C(C)C)cc3)cc2)oc2cccc(NS(=O)(=O)c3ccccc3)c12 [Example 71, L-2-{4′-[(4-Benzenesulfonylamino-3-methyl-benzofuran-2-carbonyl)-amino]-biphenyl-4-sulfonylamino}-3-methyl-butyric acid] |
| 3980 | 8.5 | Cc1c(C(=O)Nc2ccc(-c3ccc(S(=O)(=O)N[C@H](C(=O)O)C(C)C)cc3)cc2)oc2cccc(NS(=O)(=O)c3cccs3)c12 [Example 72, L-3-Methyl-2-(4′-{[3-methyl-4-(thiophene-2-sulfonylamino)-benzofuran-2-carbonyl]-amino}-biphenyl-4-sulfonylamino)-butyric acid] |
| 4770 | 11.9 | Cc1c(C(=O)Nc2ccc(-c3ccc(S(=O)(=O)N[C@H](C(=O)O)C(C)C)cc3)cc2)oc2cccc(N3CCCS3(=O)=O)c12 [Example 73, L-2-(4′-{[4-(1,1-Dioxo-1λ^6-isothiazolidin-2-yl)-3-methyl-benzofuran-2-carbonyl]-amino}-biphenyl-4-sulfonylamino)-3-methyl-butyric acid] |
| 2230 | 6.9 | Cc1c(C(=O)Nc2ccc(-c3ccc(S(=O)(=O)N[C@H](C(=O)O)C(C)C)cc3)cc2)oc2cccc(C3COC(C)(C)O3)c12 (stereo partly drawn) [Example 91, N-{[4′-({[4-(2,2-Dimethyl-1,3-dioxolan-4-yl)-3-methyl-1-benzofuran-2-yl]carbonyl}amino)-1,1′-biphenyl-4-yl]sulfonyl}-L-valine] |
| 3760 | 25 | Cc1c(C(=O)Nc2ccc(-c3ccc(S(=O)(=O)N[C@H](C(=O)O)C(C)C)cc3)cc2)oc2cccc(CO)c12 [Example 92, N-{[4′-({[4-(Hydroxymethyl)-3-methyl-1-benzofuran-2-yl]carbonyl}amino)-1,1′-biphenyl-4-yl]sulfonyl}-L-valine] |
| 1150 | 4.8 | Cc1cccc2oc(C(=O)Nc3ccc(-c4ccc(S(=O)(=O)N[C@H](C(=O)O)C(C)C)cc4)cc3)c(C)c12 [Example 93, N-[(4′-{[(3,4-Dimethyl-1-benzofuran-2-yl)carbonyl]amino}-1,1′-biphenyl-4-yl)sulfonyl]-L-valine] |
| 673 | 4.5 | CC(=O)c1cccc2oc(C(=O)Nc3ccc(-c4ccc(S(=O)(=O)N[C@H](C(=O)O)C(C)C)cc4)cc3)c(C)c12 [Example 94, N-[(4′-{[(4-Acetyl-3-methyl-1-benzofuran-2-yl)carbonyl]amino}-1,1′-biphenyl-4-yl)sulfonyl]-L-valine] |
| 2070 | 8.4 | Cc1c(C(=O)Nc2ccc(-c3ccc(S(=O)(=O)N[C@H](C(=O)O)C(C)C)cc3)cc2)oc2cccc(C(C)O)c12 (stereo partly drawn) [Example 95, N-{[4′-({[4-(1-Hydroxyethyl)-3-methyl-1-benzofuran-2-yl]carbonyl}amino)-1,1′-biphenyl-4-yl]sulfonyl}-L-valine] |

| Compound | IC50 (MMP-2) [nM] | IC50 (MMP-13) [nM] |
| --- | --- | --- |
| Cc1c(C(=O)Nc2ccc(-c3ccc(S(=O)(=O)N[C@H](C(=O)O)C(C)C)cc3)cc2)oc2cccc(NC(=O)OC(C)(C)C)c12 [Example 59, L-2-{4′-[(4-tert-Butoxycarbonylamino-3-methyl-benzofuran-2-carbonyl)-amino]-biphenyl-4-sulfonylamino}-3-methyl-butyric acid] | 3270 | 32 |
| Cc1c(C(=O)Nc2ccc(-c3ccc(S(=O)(=O)N[C@H](C(=O)O)C(C)C)cc3)cc2)oc2cccc(N)c12 [Example 61, L-2-{4′-[(4-Amino-3-methyl-benzofuran-2-carbonyl)-amino]-biphenyl-4-sulfonylamino}-3-methyl-butyric acid] | 323 | 4.3 |
| CC(C)[C@H](NS(=O)(=O)c1ccc(-c2ccc(NC(=O)c3cc4cc(Br)ccc4o3)cc2)cc1)C(=O)O [Example 84, N-[(4′-{[(5-Bromo-1-benzofuran-2-yl)carbonyl]amino}-1,1′-biphenyl-4-yl)sulfonyl]-L-valine] | 0.9 | 0.6 |
| CCc1ccc2oc(C(=O)Nc3ccc(-c4ccc(S(=O)(=O)N[C@H](C(=O)O)C(C)C)cc4)cc3)c(C)c2c1OC [Example 86, N-[(4′-{[(5-Ethyl-4-methoxy-3-methyl-1-benzofuran-2-yl)carbonyl]amino}-1,1′-biphenyl-4-yl)sulfonyl]-L-valine] | 2500 | 3.8 |
| CCc1cccc2oc(C(=O)Nc3ccc(-c4ccc(S(=O)(=O)N[C@H](C(=O)O)C(C)C)cc4)cc3)c(C)c12 [Example 87, N-[(4′-{[(4-Ethyl-3-methyl-1-benzofuran-2-yl)carbonyl]amino}-1,1′-biphenyl-4-yl)sulfonyl]-L-valine] | 1410 | 2.3 |
| CCc1ccc2oc(C(=O)Nc3ccc(-c4ccc(S(=O)(=O)N[C@H](C(=O)O)C(C)C)cc4)cc3)c(C)c2c1OC(C)C [Example 88, N-[(4′-{[(5-Ethyl-4-isopropoxy-3-methyl-1-benzofuran-2-yl)carbonyl]amino}-1,1′-biphenyl-4-yl)sulfonyl]-L-valine] | 7000 | 27 |
| CCc1ccc2oc(C(=O)Nc3ccc(-c4ccc(S(=O)(=O)N[C@H](C(=O)O)C(C)C)cc4)cc3)c(C)c2c1OCc1ccccc1 [Example 89, N-{[4′-({[4-(Benzyloxy)-5-ethyl-3-methyl-1-benzofuran-2-yl]carbonyl}amino)-1,1′-biphenyl-4-yl]sulfonyl}-L-valine] | 4340 | 67 |
| CCc1ccc2oc(C(=O)Nc3ccc(-c4ccc(S(=O)(=O)N[C@H](C(=O)O)C(C)C)cc4)cc3)c(C)c2c1O [Example 90, N-[(4′-{[(5-Ethyl-4-hydroxy-3-methyl-1-benzofuran-2-yl)carbonyl]amino}-1,1′-biphenyl-4-yl)sulfonyl]-L-valine] | 1760 | 7.1 |
